Laboratory results published in paper PMC6432920 (Journal of medicinal chemistry, 2017).
Where two headings read alike, the source gives them in different places.

Assays:
[1] = human liver microsomes; cited from earlier work
[2] = one dose treatment, nude mice bearing MCF-7 xenograft tumors; cited from earlier work

## COc1ccc2c(c1)NC(=O)CN2c1nc(C)nc2ccccc12 [Compound 2, 7-Methoxy-4-(2-methylquinazolin-4-yl)-3,4-dihydroquinoxalin-2(1H)-one]
0.25 mg/kg iv Q5D × 4
  body weight end: 25.96 ± 1.54 g
  body weight start: 22.44 ± 1.27 g
0.5 mg/kg iv Q5D × 4
  body weight end: 23.85 ± 1.57 g
  body weight start: 22.28 ± 1.33 g
1.0 mg/kg iv Q5D × 4
  body weight end: 20.50 ± 3.27 g
  body weight start: 22.13 ± 1.24 g
mice, 1.0 mg/kg
  signs of toxicity: without obvious signs of toxicity
[1]
  metabolic stability in vitro t1/2: 55 min
[2]
  lethal dose: 4 mg/kg
